According to US7994209B2, “3-phenoxymethylpyrrolidine compounds” (Theravance, Inc., priority 2009, dated 2011):
Marks after values point to notes of the source that are not given here.

Experiments:
SERT and NET = settings: cited from earlier work
hNET [1] = target: T1, hNET (Homo sapiens, UniProt P23975); assay: fluorescence-based norepinephrine reuptake inhibition assay (Tsuruda et al. 2010; data indicated by an asterisk); assay type: cell-based; set-up: expressed in transfected cells; host or cells: HEK-293; settings: norepinephrine reuptake inhibition, fluorescence-based assay (values with asterisk); for IC50: read-out: NET pIC50 (converted)
hSERT [2] = target: T2, hSERT (Homo sapiens, UniProt P31645); assay: hSERT membrane radioligand binding assay (3H-citalopram), Assay 1; settings: hSERT HEK-293 membranes, 1.0 nM 3H-citalopram, values given as lower bounds; for Ki: SERT pKi
hNET [3] = target: T1, hNET; assay: hNET membrane radioligand binding assay (3H-nisoxetine), Assay 1
Method: Membrane radioligand binding assays were used to measure inhibition of labeled ligand (^3H-citalopram or ^3H-nisoxetine or ^3H-WIN35428) binding to membranes prepared from cells expressing the respective human recombinant transporter (hSERT or hNET or hDAT) in order to determine the pKi values of test compounds at the transporters.
Recombinant human embryonic kidney (HEK-293) derived cell lines stably transfected with hSERT or hNET, respectively, were grown in DMEM medium supplemented with 10% dialyzed FBS (for hSERT) or FBS (for hNET), 100 μg/mL penicillin, 100 μg/mL streptomycin, 2 mM L-glutamine and 250 μg/mL of the aminoglycoside antibiotic G418, in a 5% CO2 humidified incubator at 37° C. When cultures reached 80% confluence, the cells were washed thoroughly in PBS (without Ca^2+ and Mg^2+) and lifted with 5 mM EDTA in PBS. Cells were pelleted by centrifugation, resuspended in lysis buffer (10 mM Tris-HCl, pH7.5 containing 1 mM EDTA), homogenized, pelleted by centrifugation, then resuspended in 50 mM Tris-HCl, pH 7.5 and 10% sucrose at 4° C. Protein concentration of the membrane suspension was determined using a Bio-Rad Bradford Protein Assay kit. Membranes were snap frozen and stored at −80° C.
Binding assays were performed in a 96-well assay plate in a total volume of 200 μl assay buffer (50 mM Tris-HCl, 120 mM NaCl, 5 mM KCl, pH 7.4) with 0.5, 1, and 3 μg membrane protein, for SERT, NET and DAT, respectively.
Stock solutions (10 mM in DMSO) of test compound were prepared and serial dilutions made using Dilution Buffer (50 mM Tris-HCl, 120 mM NaCl, 5 mM KCl, pH 7.4, 0.1% BSA, 400 μM ascorbic acid).
Following a 60 minute incubation at 22° C. (or a period sufficient to reach equilibrium), the membranes were harvested by rapid filtration over a 96-well UniFilter GF/B plate, pretreated with 0.3% polyethyleneimine, and washed 6 times with 300 μl wash buffer (50 mM Tris-HCl, 0.9% NaCl, pH 7.5 at 4° C.). Plates were dried overnight at room temperature, approximately 45 μl of MicroScint™-20 (Perkin Elmer) added and bound radioactivity quantitated via liquid scintillation spectroscopy. Inhibition curves and saturation isotherms were analyzed using GraphPad Prism Software package (GraphPad Software, Inc., San Diego, Calif.). IC50 values were generated from concentration response curves using the Sigmoidal Dose Response (variable slope) algorithm in Prism GraphPad.

hSERT [4] = target: T2, hSERT; assay: fluorescence-based serotonin reuptake inhibition assay (Tsuruda et al. 2010; data indicated by an asterisk); assay type: cell-based; set-up: expressed in transfected cells; host or cells: HEK-293; settings: fluorescence-based assay (values with asterisk); for IC50: read-out: SERT pIC50 (converted)

T1 sequence (P23975 whole entry): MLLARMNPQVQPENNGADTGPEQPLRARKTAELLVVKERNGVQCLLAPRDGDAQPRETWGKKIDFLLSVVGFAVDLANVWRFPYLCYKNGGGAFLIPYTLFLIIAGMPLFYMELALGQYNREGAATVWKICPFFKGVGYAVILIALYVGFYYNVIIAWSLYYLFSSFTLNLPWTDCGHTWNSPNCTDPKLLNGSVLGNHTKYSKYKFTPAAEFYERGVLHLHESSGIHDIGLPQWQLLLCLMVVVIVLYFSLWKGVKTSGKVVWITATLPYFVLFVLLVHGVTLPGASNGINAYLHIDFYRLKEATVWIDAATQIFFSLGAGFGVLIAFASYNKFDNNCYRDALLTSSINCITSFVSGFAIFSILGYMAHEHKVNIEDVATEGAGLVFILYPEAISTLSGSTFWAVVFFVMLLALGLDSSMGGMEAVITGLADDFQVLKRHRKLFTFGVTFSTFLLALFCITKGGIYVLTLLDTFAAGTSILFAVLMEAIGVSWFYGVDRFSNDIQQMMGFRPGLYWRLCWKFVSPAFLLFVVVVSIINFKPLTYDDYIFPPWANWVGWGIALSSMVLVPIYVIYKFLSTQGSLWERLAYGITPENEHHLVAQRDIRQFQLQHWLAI
T2 sequence (P31645 whole entry): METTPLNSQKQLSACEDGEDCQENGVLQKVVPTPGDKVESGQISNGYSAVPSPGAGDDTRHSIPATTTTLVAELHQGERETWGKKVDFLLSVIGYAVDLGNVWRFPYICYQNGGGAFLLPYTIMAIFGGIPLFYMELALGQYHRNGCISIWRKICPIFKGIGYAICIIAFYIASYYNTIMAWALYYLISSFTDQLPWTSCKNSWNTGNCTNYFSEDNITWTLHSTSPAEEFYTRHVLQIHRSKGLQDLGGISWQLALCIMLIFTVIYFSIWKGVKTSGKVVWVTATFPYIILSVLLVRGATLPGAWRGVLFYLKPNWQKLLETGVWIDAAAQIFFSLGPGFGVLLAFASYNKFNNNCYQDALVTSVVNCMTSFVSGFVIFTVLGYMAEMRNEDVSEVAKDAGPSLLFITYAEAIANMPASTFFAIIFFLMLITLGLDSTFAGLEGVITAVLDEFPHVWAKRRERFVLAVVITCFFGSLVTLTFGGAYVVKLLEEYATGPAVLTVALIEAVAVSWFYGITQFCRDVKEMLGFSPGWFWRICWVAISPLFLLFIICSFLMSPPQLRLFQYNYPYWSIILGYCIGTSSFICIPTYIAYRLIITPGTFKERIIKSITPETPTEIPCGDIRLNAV

| Compound | IC50 (hNET [1]) | Ki (hSERT [2]) | Ki (hNET [3]) | IC50 (hSERT [4]) | further results |
| --- | --- | --- | --- | --- | --- |
| CNCC[C@@H](Oc1ccccc1C)c1ccccc1 [Atomoxetine] | – | – | – | – | NET selective (SERT and NET; NET selectivity): 10 fold |
| COc1ccc(F)c(O[C@@H](C2CC2)[C@H]2CCNC2)c1Cl [Example 16-64, (S)-3-[(S)-(2-Chloro-6-fluoro-3-methoxyphenoxy)cyclopropylmethyl]pyrrolidine] | ≤ 0.01 µM | ≤ 0.01 µM | ≤ 0.01 µM | ≤ 0.01 µM | – |
| Fc1ccc(Cl)c(F)c1O[C@@H](C1CC1)[C@H]1CCNC1 [Example 16-66, (S)-3-[(S)-(3-Chloro-2,6-difluorophenoxy)cyclopropylmethyl]pyrrolidine] | ≤ 0.01 µM | ≤ 0.01 µM | ≤ 0.01 µM | ≤ 0.1 µM | – |
| Fc1ccc(Cl)c(F)c1O[C@H](C1CC1)[C@H]1CCNC1 [Example 16-67, (S)-3-[(R)-(3-Chloro-2,6-difluorophenoxy)cyclopropylmethyl]pyrrolidine] | ≤ 0.01 µM | ≤ 0.01 µM | ≤ 0.01 µM | ≤ 0.1 µM | – |
| Cc1cc(O[C@@H](C2CC2)[C@H]2CCNC2)c(Cl)cc1Cl [Example 16-72, (S)-3-[(S)cyclopropyl-(2,4-dichloro-5-methylphenoxy)methyl]pyrrolidine] | ≤ 0.1 µM | ≤ 0.01 µM | ≤ 0.1 µM | ≤ 0.01 µM | – |
| COc1cc(Cl)c(F)cc1O[C@@H](C1CC1)[C@H]1CCNC1 [Example 16-74, (S)-3-[(S)-(4-Chloro-5-fluoro-2-methoxyphenoxy)cyclopropylmethyl]pyrrolidine] | ≤ 0.01 µM | ≤ 0.01 µM | ≤ 0.01 µM | ≤ 0.01 µM | – |
| Fc1cc(Cl)cc(F)c1O[C@H](C1CC1)[C@H]1CCNC1 [Example 16-80, (S)-3-[(R)-(4-Chloro-2,6-difluorophenoxy)cyclopropylmethyl]pyrrolidine] | ≤ 0.01 µM | ≤ 0.01 µM | ≤ 0.01 µM | ≤ 0.01 µM | – |
| Clc1cccc(O[C@@H](C2CC2)[C@H]2CCNC2)c1 [Example 16-84, (S)-3-[(S)-(3-Chlorophenoxy)cyclopropylmethyl]pyrrolidine] | ≤ 0.01 µM | ≤ 0.01 µM | ≤ 0.01 µM | ≤ 0.1 µM | – |
| Clc1cccc(O[C@H](C2CC2)[C@H]2CCNC2)c1 [Example 16-85, (S)-3-[(R)-(3-Chlorophenoxy)cyclopropylmethyl]pyrrolidine] | ≤ 0.01 µM | ≤ 0.01 µM | ≤ 0.01 µM | ≤ 0.1 µM | – |
| Clc1ccc(O[C@@H](C2CC2)[C@H]2CCNC2)cc1Cl [Example 16-87, (S)-3-[(S)cyclopropyl-(3,4-dichlorophenoxy)methyl]pyrrolidine] | ≤ 0.01 µM | ≤ 0.01 µM | ≤ 0.01 µM | ≤ 0.01 µM | – |
| Clc1ccc(O[C@H](C2CC2)[C@H]2CCNC2)cc1Cl [Example 16-88, (S)-3-[(R)cyclopropyl-(3,4-dichlorophenoxy)methyl]pyrrolidine] | ≤ 0.01 µM | ≤ 0.01 µM | ≤ 0.01 µM | ≤ 0.01 µM | – |
| Cc1cc(O[C@@H](C2CC2)[C@H]2CCNC2)ccc1Cl [Example 16-94, (S)-3-[(S)-(4-Chloro-3-methylphenoxy)cyclopropylmethyl]pyrrolidine] | ≤ 0.01 µM | ≤ 0.01 µM | ≤ 0.01 µM | ≤ 0.01 µM | – |
| Cc1cc(O[C@H](C2CC2)[C@H]2CCNC2)ccc1Cl [Example 16-95, (S)-3-[(R)-(4-Chloro-3-methylphenoxy)cyclopropylmethyl]pyrrolidine] | ≤ 0.1 µM | ≤ 0.01 µM | ≤ 0.1 µM | ≤ 0.01 µM | – |
| c1ccc2c(O[C@@H](C3CC3)[C@H]3CCNC3)cccc2c1 [Example 22, (S)-3-[(S)-Cyclopropyl(naphthalen-1-yloxy)methyl]pyrrolidine] | ≤ 0.01 µM | ≤ 0.01 µM | ≤ 0.01 µM | ≤ 0.01 µM | – |
| CNCC[C@H](Oc1cccc2ccccc12)c1cccs1 [duloxetine] | – | – | – | – | selectivity (measured as pKi) for SERT over NET (SERT and NET): 10 fold; affinity for SERT relative to NET (SERT and NET; Vaishnavi et al. (2004)): higher affinity for SERT relative to NET |
| CCN(CC)C(=O)C1(c2ccccc2)CC1CN (stereo not drawn) [milnacipran] | – | – | – | – | selectivity (measured as pKi) for SERT over NET (SERT and NET): 2.5 fold |
| (S)-3-[(R)-Cyclopropyl-(2-methyl-3-vinylphenoxy)methyl]pyrrolidine [Example 23-1] | – | – | – | – | NET pIC50 (hNET [1]): ≧8.0*; SERT pKi (hSERT [2]): ≧8.0; NET pKi (hNET [3]; hNET HEK-293 membranes, 1.0 nM 3H-nisoxetine, values given as lower bounds): ≧8.0; SERT pIC50 (hSERT [4]): ≧8.0* |
